Results as given in patent publication US11708330B2, “Compounds, compositions, methods for treating diseases, and methods for preparing compounds” (UNIVERSITY OF LOUISVILLE RESEARCH FOUNDATION, INC., priority 2017, dated 2023).

What was measured:
[1] = tested on: subcutaneous Lewis lung carcinoma tumors; assay: Tumor glucose uptake in vivo by FDG-PET; parameters: species or system C57BL/6 mice; settings: 40 mg/kg PO x1, PET 60 minutes after dose, versus vehicle (FIG. 9)
Method: The efficacy of Formula (I) to decrease tumor glucose uptake was examined by positron emission tomography (PET) following ^18F-fluoro-2-deoxy-glucose (FDG) injection. […] Method: FDG-PET was conducted on tumor-bearing mice to determine acute effects of Formula (I) on glucose uptake. C57BL/6 mice (Charles River) with subcutaneous Lewis lung carcinoma tumors were injected intraperitoneally with 100 μCi of ^18F-fluoro-2-deoxy-glucose under isoflurane anesthesia and subjected to a 15-minute static scan 45 minutes after tracer injection at baseline. Twenty-four hours later, the same animals were administered vehicle (DMSO) or Formula (I) (in DMSO, 40 mg/kg, PO×1), and, after 60 minutes, FDG uptake determined by PET scan. Tumor/cerebellum ROI (regions of interest) were quantified, representative sagittal cuts from mice are shown with arrows showing the tumors on the animals. (* signifies statistical significance).

[2] = tested on: cancer cells; assay: Glycolysis in cells, 3H2O production from 5-[3H]glucose; assay type: cell-based; settings: two independently run experiments (FIG. 4A, 4B)
From the text: The effect of Formula (I) on the glycolytic pathway was examined to determine the ability of this inhibitor to decrease glycolysis secondary to its effect on PFKFB4-driven F26BP production. PFKFB4 produces F26BP which activates a rate-limiting enzyme of the glycolytic pathway, […] (PFK-1). […] Data in FIG. 4A and FIG. 4B are shown as the production of ^3H2O by Formula (I) relative to DMSO and normalized to protein concentration.
Method: To examine glycolysis, cells growing in 6-well plates were incubated in 500 μl of complete medium containing 1 μCi of […] per well for 60 min in 5% CO2 at 37° C. The medium was then collected and centrifuged to pellet any suspended cells. […] The amounts of ^3H2O that had diffused into the surrounding H2O was measured on a Tri-Carb 2910 liquid scintillation analyzer (Perkin Elmer) and compared with ^3H2O and 5-[^3H]glucose standards. Protein concentration was determined using the BCA assay and counts were normalized to protein concentration (previously described in CHESNEY et al., “Fructose-2,6-bisphosphate synthesis by 6-phosphofructo-2-kinase/fructose-2,6-bisphosphatase 4 (PFKFB4) is required for the glycolytic response to hypoxia and tumor growth” Oncotarget (2014) Vol. 5, No. 16, pp. 6670-6686, which is herein incorporated by reference in its entirety).

[3] = tested on: cancer cells; assay: Intracellular ATP, bioluminescence assay; assay type: cell-based; settings: two independently run experiments (FIG. 5A, 5B)
Method: The effect of Formula (I) on the production of ATP was examined as a measure of its effect on energy production by the glycolytic pathway.
To measure ATP, cells were washed (while still adherent) with cold PBS, lysed with Passive Lysis Buffer (Molecular Probes, Invitrogen) added directly to the plates, and immediately harvested by scraping. The lysates were flash frozen (to −80° C.) and thawed (to 37° C.) once to accomplish complete lysis and then centrifuged to clear the lysates. Intracellular ATP levels were determined using a bioluminescence assay (Molecular Probes), utilizing luciferase and its substrate, D-luciferin and ATP values were calculated using an ATP standard curve. The ATP concentration was normalized to protein concentration that was estimated using the BCA assay.

[4] = tested on: cancer cells; assay: Intracellular fructose-2,6-bisphosphate (F26BP) in cells; assay type: cell-based; settings: increasing concentrations; two independently run experiments (FIG. 3A, 3B)
Method: The ability of Formula (I) to inhibit the activity of the PFKFB4 enzyme in cells was measured by examining the effect of the inhibitor on the levels of the product of the PFKFB4 enzyme, fructose-2,6-bisphosphate (F26BP). […] Data in FIG. 3 are shown as the concentration of intracellular F26BP normalized to cellular protein concentration.
In order to measure F26BP, cells were exposed to increasing concentrations of Formula (I) and were harvested, washed with PBS, lysed in NaOH/Tris acetate by heating at 80° C. and lysates neutralized to pH 7.2. F26BP content was measured using a coupled enzyme reaction following the method of Van Schaftingen (VAN SCHAFTINGEN et al, “A kinetic study of pyrophosphate: fructose-6-phosphate phosphotransferase from potato tubers. Application to a microassay of fructose 2,6-bisphosphate” Eur J Biochem. (1982) Vol. 129, No. 1, pp. 191-195), which is herein incorporated by reference in its entirety. The F26BP concentration was normalized to total cellular protein measured by the bicinchoninic acid assay (BCA, Thermo Scientific).

[5] = tested on: cancer cells; assay: Anchorage independent growth as colonies in soft agar; assay type: cell-based; settings: increasing concentrations; compared with DMSO (FIG. 6)
Method: We examined the ability of Formula (I) to inhibit the anchorage independent growth of cancer cells in vitro as colonies in soft agar. […] Representative images are shown in FIG. 6A, and colonies formed were enumerated. The number of colonies formed in the presence of Formula (I) was compared with those formed in the presence of the vehicle, DMSO (FIG. 6B).
Cancer cells were plated in soft agar and the effects of increasing concentrations of Formula (I) on anchorage independent growth was examined Briefly, a feeder layer of 0.6% agarose (Agar Noble, Becton Dickinson) in RPMI with 10% fetal bovine serum was plated in 6 cm plates containing vehicle (DMSO) or increasing concentrations of Formula (I). 1×10^4 cells were re-suspended in 0.3% agarose in RPMI/10% serum containing DMSO or increasing concentrations of Formula (I) and plated on top of the feeder layer. Cells were allowed to grow at 37° C. in 5% CO2 and agarose-containing media with DMSO+/−Formula (I) was replenished every 5 days until colonies became visible. Colonies were stained with MTT [3-(4,5-dimethylthiazol-2-yl)-2,5-diphenyl tetrazolium bromide] and counted in four random 1 cm^2 areas per plate under 40× magnification and enumerated.

[6] = tested on: human cancer cell lines; assay: Cell proliferation, viable cell counts by Trypan blue exclusion; assay type: cell-based; settings: increasing concentrations; cell counts relative to DMSO, representative counts at 48 hours (FIG. 2); compared with SMPN
Method: The effect of increasing concentrations of Formula (I) on the proliferation of human cancer cells was examined in vitro. […] Data in FIG. 2 are shown as the decrease in cell counts relative to the DMSO (vehicle) control.
Method: Cells were plated in 24 well plates and exposed to increasing concentrations of Formula (I). DMSO was used as a vehicle. After 24, 48 and 72 hours of exposure, cells were detached, and viable cells were counted by Trypan blue exclusion (representative counts at 48 hours shown).

[7] = target: recombinant human PFKFB4 protein (Homo sapiens, UniProt Q16877); assay: ADP-Glo kinase assay of recombinant PFKFB4; assay type: biochemical; settings: decrease in luminescence relative to DMSO (FIG. 1)
Method: The efficacy of the compound Formula (I) in inhibiting the activity of the PFKFB4 enzyme was tested by examination of the effect of Formula (I) on the kinase activity of recombinant PFKFB4 enzyme in the ADP-Glo assay.
The efficacy of Formula (I) in inhibition of the kinase activity of the PFKFB4 enzyme was examined by exposing recombinant human PFKFB4 protein to Formula (I) in the ADP-Glo kinase assay (Promega) which measures ADP formed through a kinase reaction. Briefly, recombinant protein, ATP, substrate and Formula (I) were incubated together for the kinase reaction followed by the addition of ADP-Glo reagent, used to terminate the kinase reaction. Lastly, a kinase detection reagent was added to convert the newly formed ADP to ATP which was measured by a luciferase reaction. Data are shown in FIG. 1 as the decrease in luminescence caused by Formula (I) relative to DMSO. Decrease in Cell Proliferation by Formula (I) (Also Referred to as FBR1-12): […]

[8] = tested on: Lewis lung carcinoma cells; assay: Tumor growth in vivo, syngeneic Lewis lung carcinoma model; parameters: species or system C57BL/6 mice; settings: daily oral 40 mg/kg in DMSO, 9 days, established tumors ~150-200 mg (FIG. 8)
From the text: The efficacy of Formula (I) in decreasing the growth of tumors in vivo was examined Mice were implanted with Lewis lung carcinoma cells and after tumors were noted, dosed daily with DMSO±Formula (I) by gavage and tumor growth followed. […] Data shown as mean±SEM for each timepoint. C57BL/6 mice (Charles River) were implanted with 1×10^6 Lewis lung carcinoma cells subcutaneously and, after tumors developed, were followed by caliper measurements daily to quantify tumor mass using the formula: tumor mass=(length×width^2)/2. When tumors were ˜150-200 mg, mice were randomized to daily oral DMSO±Formula (I) (n=10/group) at 40 mg/kg in 50 μL DMSO and tumor growth followed×9 days. (* signifies statistical significance)

recombinant human PFKFB4 protein, sequence (Q16877 whole entry): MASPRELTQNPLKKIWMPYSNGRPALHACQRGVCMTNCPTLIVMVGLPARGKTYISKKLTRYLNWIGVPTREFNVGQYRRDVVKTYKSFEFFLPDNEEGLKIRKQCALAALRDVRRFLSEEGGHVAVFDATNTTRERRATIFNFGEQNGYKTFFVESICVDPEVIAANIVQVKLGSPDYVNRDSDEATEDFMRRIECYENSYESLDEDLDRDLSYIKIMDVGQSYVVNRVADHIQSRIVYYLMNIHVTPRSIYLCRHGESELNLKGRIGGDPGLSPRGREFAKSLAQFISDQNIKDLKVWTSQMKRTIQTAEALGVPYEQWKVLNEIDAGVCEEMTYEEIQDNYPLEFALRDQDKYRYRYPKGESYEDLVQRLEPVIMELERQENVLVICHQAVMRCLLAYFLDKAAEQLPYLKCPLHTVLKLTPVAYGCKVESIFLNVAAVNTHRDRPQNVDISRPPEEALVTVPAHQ

COc1cccc2c(NCCCCCNC(=O)C(F)(F)F)ccnc12 [Formula (I), 2,2,2-trifluoro-N-(5-((8-methoxyquinolin-4-yl)amino)pentyl)acetamide]
tumor FDG uptake (tumor/cerebellum ROI) [1]: caused a decrease in tumor FDG uptake compared with vehicle | glycolysis, production of 3H2O relative to DMSO normalized to protein concentration [2]: dose-dependent decrease in glycolysis in cancer cells | production of ATP normalized to protein concentration [3]: dose-dependent decrease in the production of ATP by cancer cells | intracellular F26BP normalized to cellular protein concentration [4]: dose-dependent decrease in F26BP in cancer cells | anchorage independent growth, soft agar colonies [5]: inhibited the growth of cancer cells as soft agar colonies | proliferation of human cancer cell lines [6]: decreases the proliferation of human cancer cell lines in vitro with higher potency than SMPN | kinase activity of the PFKFB4 enzyme [7]: inhibited the kinase activity of the PFKFB4 enzyme | tumor growth (tumor mass) [8]: decreased established tumor growth in a syngeneic mouse tumor model
